From EP3827825A1, “USE OF 3, 4-DIARYLPYRAZOLES AS ANTIBACTERIAL AGENTS” (Wageningen Universiteit, priority 2019, dated 2021)
Converted amounts (≈) assume the structure as drawn. Where two headings read alike, the source gives them in different places.

Experiments:
S. aureus Newman = assay: Minimal inhibitory concentration (MIC), double-dilution in broth, OD600; type: cell-based, Staphylococcus aureus Newman; conditions: unit assumed
Protocol: (§1) In short, a stock solution of 5 mg/mL of HKIs in DMSO was made. This stock was diluted to 50 µg/mL in broth in a 96 well plate. Dilutions were made (factor 2) directly in the plate with a multi-channel pipet. Bacteria cultured in suspension overnight were then added to the plate (except negative control) and the plate was incubated for 24 hours. After 24 hours the OD600 was measured using a spectrophotometer. A positive control (with bacteria, without HKI) was also measured on each plate.
Bacterial strains used in this study for antibacterial susceptibility testing (Table S2) were propagated using standard microbiological procedures. Minimal inhibitory concentrations (MICs) were determined following a standard double-dilution method (42), 73. […] For M. marinum, MICs were determined in Middlebrook 7H9 broth (Difco) and MICs were determined after 3 days incubation at 30 °C.
(§2) Grow the bacterial colonies to be tested from single colonies on an agar plate in LB broth or suitable bacterial growth medium overnight at 37°C. Prepare a 5 mg/mL stock solution of compounds to be tested in DMSO. One 96-well plate per bacterial strain was prepared. First, put 50 uL of medium to each well. Add 48 µL of medium to all wells in row A. Pipet 2 µL of antimicrobial master stock into the top well (row A). Beware, the antimicrobial concentration will be diluted 2x after adding the bacterial culture. Total volume in each well will be 100 µL. In A11, pipet 2 µL of DMSO. Make a serial dilution from row A to row H, pipetting 50 µL from the previous row into the new one. Mix well by pipetting up and down. Discard the last 50 µL so that there is 50 µl in each well In a clean, new plastic pipetting cup, dilute the overnight bacterial culture 100 times. Add 100 µL of bacterial overnight culture to 9900 µL of medium. Mix the suspension well. Once the serial dilutions are complete for all antimicrobial compounds, add 50 µL of diluted overnight bacterial culture to each well (except column 12). Mix by pipetting or put the plate on the shaker. Per 2 plates, close with parafilm around the edges and place in the incubator overnight. After overnight culturing, measure bacterial growth on the SpectraMax. The lowest concentration where no growth is observed is the MIC. To determine the MIB pipette 5 µL from each well of the 96 well plate where now growth was observed on to an LB agar plate, without antimicrobial. Put the plates in the incubator to grow overnight. The minimal concentration where no growth can be seen on the agar plate is the MBC.

S. suis = assay: as above; type: cell-based, Streptococcus suis; conditions: unit assumed
Protocol: as §1, with “each plate. The MICs were not determined in duplo/triplicate in the same experiment, however, the MICs of several HKIs were measured in different experiments and no major differences (max. 1x dilution) were found in the MICs between the experiments.” for “each plate.”
(§3) Bacterial strains used in this study for antibacterial susceptibility testing (Table S2) were propagated using standard microbiological procedures. Minimal inhibitory concentrations (MICs) were determined following a standard double-dilution method (42), 73. MICs were recorded as the lowest concentration of the compound where no visible growth was observed. After plating the dilutions around the MIC or growing them in fresh MH media, minimal bactericidal concentration (MBC) was recorded as the lowest concentration of the compound at which no colonies were formed or no growth was observed, respectively. For M. marinum, MICs were determined in Middlebrook 7H9 broth (Difco) and MICs were determined after 3 days incubation at 30 °C.
as §2

P. multocida = assay: as above; type: cell-based, Pasteurella multocida; conditions: unit assumed
Protocol: as §1, with “each plate. The MICs were not determined in duplo/triplicate in the same experiment, however, the MICs of several HKIs were measured in different experiments and no major differences (max. 1x dilution) were found in the MICs between the experiments.” for “each plate.”
as §3, §2

M. marinum = assay: Minimal inhibitory concentration (MIC), Middlebrook 7H9 broth, 3 days at 30 °C; type: cell-based, Mycobacterium marinum; conditions: unit assumed
Protocol: as §1, with “each plate. The MICs were not determined in duplo/triplicate in the same experiment, however, the MICs of several HKIs were measured in different experiments and no major differences (max. 1x dilution) were found in the MICs between the experiments.” for “each plate.”
as §3, §2

E. coli JW5503 = type: cell-based, Escherichia coli; conditions: unit assumed
Protocol: as §1, with “each plate. The MICs were not determined in duplo/triplicate in the same experiment, however, the MICs of several HKIs were measured in different experiments and no major differences (max. 1x dilution) were found in the MICs between the experiments.” for “each plate.”
as §3, §2

E. faecium Van A = assay: Minimal inhibitory concentration (MIC), double-dilution in broth, OD600; type: cell-based, Enterococcus faecium; conditions: unit assumed
Protocol: as §1, with “each plate. The MICs were not determined in duplo/triplicate in the same experiment, however, the MICs of several HKIs were measured in different experiments and no major differences (max. 1x dilution) were found in the MICs between the experiments.” for “each plate.”
as §3, §2

NRK-52E = assay: Cell toxicity, Alamar blue assay, 24 hours exposure; type: cell-based; conditions: Rattus norvegicus
Protocol: Toxicity was primarily determined by measuring cytotoxicity with the Alamar blue assay. In short, cells (HEK293, NRK-52E and Caco-2) were plated in 96-well plates and cultured overnight. HKI compounds were diluted to concentrations ranging from 0.39 to 500 µg/mL in serum-free medium and added to the cells.
After exposure, cells were incubated for 24 hours. Experiments were mostly performed by single measurement. […] After 24 hours HKIs were removed from the cells and Alamar blue was added, incubated for 45 minutes and fluorescence was measured on a spectrophotometer. Alamar blue measures the conversion of blue, low fluorescent resazurin into high fluorescent pink resorufin. This conversion can only be made in viable mitochondria in viable cells and therefore this dye provides a measure for cytotoxicity.

[1] = read-out: IC50 NRK-52E (50 mg/mL stock)

Structure (SMILES)	MIC S. aureus Newman (S. aureus Newman) [µg/mL]	MIC S. suis (S. suis) [µg/mL]	MIC P. multocida (P. multocida) [µg/mL]	MIC M. marinum (M. marinum) [µg/mL]	MIC E. coli JW5503 (E. coli JW5503) [µg/mL]	MIC E. faecium Van A (E. faecium Van A) [µg/mL]	IC50 (NRK-52E; [1]) [µg/mL]	IC50 (NRK-52E; read-out: IC50 NRK-52E (50 mg/mL stock), 50 mg/mL stock) [µg/mL]
O=[N+]([O-])c1ccc(COc2ccc(-c3[nH]nc(C(F)(F)F)c3-c3ccc(Cl)cc3)c(O)c2)cc1 [Sep-12, 2-[4-(4-chlorophenyl)-5-(trifluoromethyl)-1∼{H}-pyrazol-3-yl]-5-(4-nitrobenzyl)oxyphenol]	3.13 (≈ 6.39 µM)	12.5 (≈ 25.5 µM)	> 50	50 (≈ 102 µM)	> 50	12.5 (≈ 25.5 µM)	14.7 (≈ 30.1 µM)	
CCCCCOc1ccc(-c2n[nH]c(C(F)(F)F)c2-c2ccccc2Cl)c(O)c1 [Sep-5, 2-[4-(2-chlorophenyl)-5-(trifluoromethyl)-1∼{H}-pyrazol-3-yl]-5-pentoxyphenol]	3.13 (≈ 7.37 µM)	12.5 (≈ 29.4 µM)	> 50	50 (≈ 118 µM)	> 50	12.5 (≈ 29.4 µM)	~7.46 (≈ 17.6 µM)	
COc1ccc(-c2c(-c3ccc(OC)cc3O)n[nH]c2C(F)(F)F)cc1 [May-8]	12.5 (≈ 34.3 µM)	12.5 (≈ 34.3 µM)	> 50	50 (≈ 137 µM)	3.13 (≈ 8.59 µM)		2.64 (≈ 7.25 µM)	
COc1ccccc1-c1c(C(F)(F)F)n[nH]c1-c1ccc(OCc2ccc(C)cc2)cc1O [Sep-16, 2-[4-(2-methoxyphenyl)-5-(trifluoromethyl)-1∼{H}-pyrazol-3-yl]-5-(4-methylbenzyl)oxy-phenol]	6.25 (≈ 13.8 µM)	25 (≈ 55 µM)	> 50	> 50	50 (≈ 110 µM)	12.5 (≈ 27.5 µM)	~8.72 (≈ 19.2 µM)	
COc1ccc(-c2c(C(F)(F)F)n[nH]c2-c2ccc(OCc3ccccc3F)cc2O)cc1 [Sep-8, 5-(2-fluorobenzyl)oxy-2-[4-(4-methoxyphenyl)-5-(trifluoromethyl)-1∼{H}-pyrazol-3-yl]phenol]	3.13 (≈ 6.83 µM)	12.5 (≈ 27.3 µM)	> 50	> 50	50 (≈ 109 µM)	6.25 (≈ 13.6 µM)	~14.5 (≈ 31.7 µM)	
Cc1ccc(COc2ccc(-c3n[nH]c(C(F)(F)F)c3-c3cccc4ccccc34)c(O)c2)cc1 [Sep-4, 5-(4-methylbenzyl)oxy-2-[4-(1-naphthyl)-5-(trifluoromethyl)-1∼{H}-pyrazol-3-yl]phenol]	3.13 (≈ 6.6 µM)	25 (≈ 52.7 µM)	> 50	50 (≈ 105 µM)	> 50	25 (≈ 52.7 µM)	13.9 (≈ 29.2 µM)	
Oc1cc(OCc2c(F)cccc2Cl)ccc1-c1[nH]nc(C(F)(F)F)c1-c1ccc(Cl)cc1 [Sep-11, 5-(2-chloro-6-fluorobenzyl)oxy-2-[4-(4-chlorophenyl)-5-(trifluoromethyl)-1∼{H}-pyrazol-3-yl]phenol]	3.13 (≈ 6.29 µM)	12.5 (≈ 25.1 µM)	> 50	> 50	> 50	6.25 (≈ 12.6 µM)	11.8 (≈ 23.8 µM)	
CCOc1ccc(-c2n[nH]c(C(F)(F)F)c2-c2ccccc2)c(O)c1C [Sep-3, 3-ethoxy-2-methyl-6-[4-phenyl-5-(trifluoromethyl)-1∼{H}-pyrazol-3-yl]phenol]	12.5 (≈ 34.5 µM)	25 (≈ 69 µM)	> 50	> 50	6.25 (≈ 17.2 µM)	25 (≈ 69 µM)	~15.5 (≈ 42.8 µM)	
C=C(C)COc1ccc(-c2[nH]nc(C(F)(F)F)c2-c2ccccc2OC)c(O)c1 [Sep-15, 2-[4-(2-methoxyphenyl)-5-(trifluoromethyl)-1∼{H}-pyrazol-3-yl]-5-(2-methylallyloxy)phenol]	3.13 (≈ 7.74 µM)	12.5 (≈ 30.9 µM)	> 50	50 (≈ 124 µM)	6.25 (≈ 15.5 µM)	6.25 (≈ 15.5 µM)	~7.62 (≈ 18.8 µM)	
C=C(C)COc1ccc(-c2[nH]nc(C(F)(F)F)c2-c2ccc(OC)cc2)c(O)c1 [Sep-7, 2-[4-(4-methoxyphenyl)-5-(trifluoromethyl)-1∼{H}-pyrazol-3-yl]-5-(2-methylallyloxy)phenol]	6.25 (≈ 15.5 µM)	12.5 (≈ 30.9 µM)	> 50	> 50	6.25 (≈ 15.5 µM)	12.5 (≈ 30.9 µM)	~7.49 (≈ 18.5 µM)	
COc1ccc(-c2c(-c3ccc(OCc4ccccc4)cc3O)n[nH]c2C(F)(F)F)cc1OC [Sep-28, 5-benzoxy-2-[4-(3,4-dimethoxyphenyl)-5-(trifluoromethyl)-1∼{H}-pyrazol-3-yl]phenol]	12.5 (≈ 26.6 µM)	> 50	> 50	> 50	25 (≈ 53.1 µM)	> 50	~17.3 (≈ 36.7 µM)	
COc1ccc(-c2c(C(F)(F)F)n[nH]c2-c2ccc(O)cc2O)cc1OC [May-2, 4-[4-(3,4-dimethoxyphenyl)-5-(trifluoromethyl)-1∼{H}-pyrazol-3-yl]resorcinol]	50 (≈ 131 µM)	50 (≈ 131 µM)	> 50	> 50		50 (≈ 131 µM)	13.9 (≈ 36.6 µM)	
COc1ccccc1-c1c(-c2ccc(OCC(=O)NN)cc2O)n[nH]c1C(F)(F)F [Sep-26, 2-[3-hydroxy-4-[4-(2-methoxyphenyl)-5-(trifluoromethyl)-1∼{H}-pyrazol-3-yl]phenoxy]acetohy drazide]	> 50	> 50	> 50	> 50		25 (≈ 59.2 µM)		194 (≈ 461 µM)
Oc1ccc(-c2[nH]nc(C(F)(F)F)c2-c2ccccc2)c(O)c1 [May-10, 4-[4-phenyl-5-(trifluoromethyl)-1∼{H}-pyrazol-3-yl]resorcinol]	6.25 (≈ 19.5 µM)	12.5 (≈ 39 µM)	25 (≈ 78.1 µM)	50 (≈ 156 µM)		12.5 (≈ 39 µM)	~3.61 (≈ 11.3 µM)	
COc1ccc(-c2[nH]nc(C(F)(F)F)c2-c2ccc(OC)c(OC)c2)c(O)c1 [May-5, 2-[4-(3,4-dimethoxyphenyl)-5-(trifluoromethyl)-1∼{H}-pyrazol-3-yl]-5-methoxy-phenol]	25 (≈ 63.4 µM)	50 (≈ 127 µM)	> 50	> 50			6.11 (≈ 15.5 µM)	
COc1ccc(-c2n[nH]c(C)c2-c2ccc(Cl)cc2)c(O)c1 [Sep-21, 2-[4-(4-chlorophenyl)-5-methyl-1∼{H}-pyrazol-3-yl]-5-methoxy-phenol]	50 (≈ 159 µM)	> 50	> 50	50 (≈ 159 µM)		50 (≈ 159 µM)	18.2 (≈ 57.9 µM)	
COc1ccccc1-c1c(-c2ccc(O)cc2O)n[nH]c1C(F)(F)F [May-13, 4-[4-(2-methoxyphenyl)-5-(trifluoromethyl)-1∼{H}-pyrazol-3-yl]resorcinol]	25 (≈ 71.4 µM)	25 (≈ 71.4 µM)	50 (≈ 143 µM)	> 50		50 (≈ 143 µM)	8.06 (≈ 23 µM)	
